Measured values as given in paper PMC8048873 (The Plant Journal, 2021).

Target: T1, CERK1 ectodomain (CERK1-ECD; LYK1) (Arabidopsis thaliana, UniProt A8R7E6)
T1 sequence (A8R7E6 24-232): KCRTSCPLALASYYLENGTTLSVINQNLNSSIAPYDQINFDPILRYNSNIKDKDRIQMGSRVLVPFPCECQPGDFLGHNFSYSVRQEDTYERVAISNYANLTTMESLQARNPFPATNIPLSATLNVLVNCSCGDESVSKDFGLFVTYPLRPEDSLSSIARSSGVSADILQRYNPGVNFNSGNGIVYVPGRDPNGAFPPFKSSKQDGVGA
Assay: isothermal titration calorimetry
Type: binding
Details: 20 mM MES pH 6.5, 150 mM NaCl, 25°C; 50 µM protein in cell, ligand 500 µM or 1 mM; n = 2

`CC(=O)N[C@H]1[C@H](O[C@H]2[C@H](O)[C@@H](NC(C)=O)[C@H](O[C@H]3[C@H](O)[C@@H](NC(C)=O)C(O)O[C@@H]3CO)O[C@@H]2CO)O[C@H](CO)[C@@H](O[C@@H]2O[C@H](CO)[C@@H](O[C@@H]3O[C@H](CO)[C@@H](O[C@@H]4O[C@H](CO)[C@@H](O)[C@H](O)[C@H]4NC(C)=O)[C@H](O)[C@H]3NC(C)=O)[C@H](O)[C@H]2NC(C)=O)[C@@H]1O` (stereo partly drawn) [1,4‐β‐D‐(GlcNAc)6, chitohexaose] gave a Kd of 37.5 ± 10 µM.
